pIC50: −log10 of the molar value. Values after ≈ are worked out from the molar mass of the structure shown.
How the values were obtained:
BRD4 BD1 = BRD4 BD1 (Homo sapiens (Human), UniProt O60885); assay: NanoBRET bromodomain assay, NanoLuc-BRD4-BD1 fusion in HEK293 cells; assay type: cell-based; conditions: top concentration 10 μM
BRD4 BD2 = BRD4 BD2 (Homo sapiens (Human), UniProt O60885); assay: NanoBRET bromodomain assay, NanoLuc-BRD4-BD2 fusion in HEK293 cells; conditions: for pIC50: BRD4 BD2 (IC50), NanoBRET, HEK293 cells, top concentration 10 μM; for Fold selectivity: IC50 for BRD4 BD1 divided by IC50 for BRD4 BD2, qualitative if an IC50 is at the upper limit;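 for all read-outs here: tracer displacement BRET read in transfected cells after 2 h compound exposure at 37 °C, signal in milliBRET units corrected against no-tracer background wells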
Experimental: HEK293 cells were transfected using NanoLuc-BRD4-BD1 or NanoLuc-BRD4-BD2 fusion vectors and incubated at 37° C. in an atmosphere of 5% CO2 for 20-24 hours. The transfected cells were then dispensed into 96-well plates using 90 μl cell suspension per well containing 2×10^5 cells/mL in Opti-MEM and 1× final concentration of tracer. 90 μL per well of cell suspension without tracer was also dispensed into at least 3 wells as “No tracer control samples” for background correction. Serially diluted test compounds were prepared at 1000× concentration in DMSO and further diluted to 10× concentration in Opti-MEM. […] Plates were then incubated at 37° C. +5% 002 incubator for 2 hours. […] Donor emission (450 nm) and acceptor emission (610 nm) were measured using PHERAstar (BMG LabTech). For data analysis, the raw BRET ratio was generated and converted to milliBRET units with background correction using the formula: [(Acceptorsample/Donorsample−(Acceptorno tracer control/Donorno tracer control)]×1000. The mBU data was plotted as a function of compound concentration and IC50s for BRET assay were determined by nonlinear regression analysis of concentration response curves using the Collaborative Drug Discovery Vault software. The fold-selectivity was calculated by dividing the IC50 for BRD4 BD1 by the IC50 for BRD4 BD2.

[1] = Intrinsic clearance in liver microsomes, rat; assay type: in vitro ADME; conditions: Method 1; for half-life at 1 μM: rat, liver microsomes, pH 7.4, rat liver microsomes, read-out: Half-Life (T1/2) (min), Rat
Procedure, shortened: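 Compound at 1 μM (0.1–1% DMSO) incubated at 37 °C with mouse or rat liver microsomes (0.5 mg/mL protein) and 1 mM NADPH in PBS pH 7.4; samples taken up to 60 min and quenched in cold acetonitrile. LC-MS/MS of percent remaining gave half-life and CLint; no-NADPH controls run.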

[2] = Plasma stability assay, rat plasma; assay type: in vitro ADME
Procedure, shortened: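 Compound at 5 μM final (0.5% DMSO) in one protocol or 10 μM (2% DMSO) in the other, incubated in plasma at 37° C.; samples taken 0–120 min and quenched with cold acetonitrile plus internal standard. LC-MS/MS gives percent remaining relative to the 0-min sample.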

[3] = Sprague-Dawley rat pharmacokinetics, IV and PO cassette dosing; assay type: in vivo; conditions: for IV T1/2 / half-life: IV 1 mg/kg; for IV T1/2 / PO F: Method 1; for PO F: PO 5 mg/kg; for half-life: male, Sprague-Dawley, rat, plasma, iv, 1 mg/kg, Method 1, read-out: IV T1/2 (converted)
Procedure, shortened: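 Male Sprague-Dawley rats (2 per arm) given up to 5 compounds in cassette, 1 mg/kg IV and 5 mg/kg PO, formulated in 5% DMSO/40% PEG-400/55% water. Plasma from serial blood samples was acetonitrile-precipitated and analysed by LC/MS/MS against matrix-matched standard curves.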

[4] = Thermodynamic solubility in FaSSIF pH 6.5 buffer; assay type: physicochemical; conditions: for solubility thermodynamic / solubility thermodynamic at 24 h: FaSSIF buffer, 25 °C, pH 6.5, fassif, thermodynamic from solid; for solubility thermodynamic: Method 2 (LCMS, 25° C.)
Experimental: FaSSIF v2 buffer is freshly prepared prior to use according to the suppliers' instructions and the pH adjusted to 6.5 using 1 M NaOH or 1 M HCl as required. From 1 mM working solution of test compound in DMSO, the λmax of the test compound is determined by scanning from 200 nm to 700 nm, in 1 nm steps with an EPOCH UV/Visible spectrophotometer (Biotek Instruments Inc.). A 12-point standard curve of compound concentration versus absorption at λmax is generated via two-fold serial dilutions of the 1 mM working solution with DMSO. Approximately 1 mg of test compound is accurately weighed into an Eppendorf tube and the appropriate volume of FaSSIF buffer is added to make a nominal concentration of 1 mg/mL. The tube is incubated on a rotator at 20 rpm, 25° C. for 24 hrs. Samples are then filtered using 0.45 μm filters (Sartorious, CAT #1776C) and the filtrate subjected to UV-vis spectroscopy analysis. The absorption at λmax is compared to the standard curve to determine the concentration of compound in solution after 24 hours.
FaSSIF buffer was prepared according to the suppliers' instructions and the pH adjusted to 6.5 using 1 M NaOH or 1 M HCl as required. […] A stir stick was added to each vial and vials sealed with a moulded PTDE/SIL 96-well plate cover. The plate was shaken at 25° C. at 1,100 rpm using an Eppendorf Thermomixer Comfort plate shaker. The plates were filtered using a vacuum manifold and diluted with a mixture of H2O and acetonitrile containing internal standard. The concentration of the test compound in the filtrate was determined by LCMS analysis with reference to the internal standards to determine the solubility in the buffer.

[5] = Intrinsic clearance in liver microsomes, mouse; assay type: in vitro ADME; conditions: pH 7.4, Method 1, read-out: Half-Life (T1/2) (min), Mouse
Experimental: From stock solution of compound on 10 mM DMSO, a working solution of 0.1 mM is prepared by diluting the compound in DMSO. 6.25 μL of a 20 mg/mL solution of microsomes in PBS pH 7.4 buffer is added to 216.25 μL PBS pH 7.4 buffer (final microsome concentration—0.5 mg/mL). 25 μL of 10 mM solution of NADPH in PBS pH 7.4 buffer is added to the incubations (final NADPH concentration—1 mM). The mixture is pre-warmed to 37° C. for 10 minutes. 2.5 μL of test compound working solution is added (final compound concentration—1 μM with 1% DMSO). Aliquots of 30 μL are taken from the reaction solution at 0.5, 5, 15, 30 and 60 minutes. The reaction was stopped by the addition of 5 volumes of cold acetonitrile with IS (100 nM alprazolam, 200 nM caffeine and 100 nM tolbutamide). Samples were centrifuged at 3, 220 g for 40 minutes. Aliquots of 100 μL of the supernatant are mixed with 100 μL of ultra-pure H2O and used for LC-MS/MS analysis. The percent compound remaining at each time point is calculated with respect to that of the 0.5 min sample. The data are analysed to calculate half-life. Control experiments are run without NADPH and blank samples are prepared using DMSO without the test compound.
A 50 mM stock solution (in DMSO) is prepared for the compound. From the stock solution, a working solution of 0.5 mM is prepared by diluting the compound in DMSO. This concentration of working solution is prepared considering a final concentration of 1 uM with 0.1% DMSO. The compound (1 μL of working solution) is spiked in PBS with pH 7.4 ([…]) at a concentration of 1 μM. Subsequently, 110 μL of 10 mM NADPH is added (as a co-factor). The sample is incubated at 37° C. for 15 min. Following this, pre-warmed liver microsomes (27.5 μL; final protein conc. 0.5 mg/mL) are added. The samples are then incubated at 37° C. Aliquots of samples are withdrawn at 0, 5, 15, 30, 45 and 60 min. The reaction is stopped by using chilled acetonitrile containing internal standard. The samples are centrifuged, and the supernatants analysed by LC-MS/MS. The percent compound remaining at each time point is calculated with respect to that of the 0 min sample. The data are then analysed to calculate half-life and intrinsic clearance (CLint). Control experiments are run without NADPH and blank samples are prepared using DMSO without the test compound.

[6] = Plasma stability assay, human plasma; assay type: in vitro ADME; conditions: Method 1 (5 μM)
Experimental: (§1) From stock solution of compound in 10 mM DMSO, a working solution of 1 mM is prepared by diluting the compound in DMSO. To 398 μL of plasma pre-warmed at 37° C. for 15 minutes), 2 μL of working solution of compound is added, resulting in a final concentration of 5 μM (0.5% DMSO) for the compound. The sample is then incubated at 37° C. Aliquot is withdrawn at specified time-points (0, 15, 30, 60 and 120 mins). The reaction is stopped by addition of 450 μL cold acetonitrile containing internal standard (IS). […] Aliquots of the supernatant is analysed using LC-MS/MS. The percent remaining of the compound at each time point is calculated with respect to the control sample (0 min time-point).
(§2) A working solution of compound (500 μM) is prepared in DMSO (100%). To 735 μL of plasma, 15 μL of working solution of compound is added—resulting in a final concentration of 10 μM (2% DMSO) for the compound. The sample is then incubated at 37° C. Aliquot is withdrawn at time-points—0, 15, 30, 60, 90 and 120 mins. The reaction is stopped by using chilled acetonitrile containing internal standard (IS). The samples are centrifuged and the supernatants analyzed using LC-MS/MS. The percent remaining of the compound at each time point is calculated with respect to the control sample (0 min time-point).

[7] = Plasma stability assay, mouse plasma; assay type: in vitro ADME; conditions: Method 1 (5 μM)
Experimental: as §1, §2

[8] = Method 1 (UV-vis, 25° C., 24 hrs)

In the case of CNC(=O)c1[nH]c(C(=O)NC2CC2)cc1O[C@@H](C)c1ccccc1F [Example 59, (S)—N^5-cyclopropyl-3-(1-(2-fluorophenyl)ethoxy)-N^2-methyl-1H-pyrrole-2,5-dicarboxamide], the pIC50 (BRD4 BD1) was ≤ 5.00, the pIC50 (BRD4 BD2) was 6.70 to 7.30 and the Fold selectivity (BRD4 BD2) was “XX (Fold >50 and ≤200)”. The half-life at 1 μM [1] was > 60 min, the “Plasma Stability (% remaining at 120 minutes), Rat” value ([2]; Method 2 (10 μM)) was 50% and the “IV T1/2” value [3] was 1.1 h. For the same compound, the “PO F” value [3] was 70% and the solubility thermodynamic [4] was 635 µM (≈ 219 µg/mL).

In the case of C#Cc1ccc(C(C)Oc2cc(C(=O)NCC)[nH]c2C(=O)NC)cc1 (single isomer, unassigned) [Example 70, N^5-ethyl-3-(1-(4-ethynylphenyl)ethoxy)-N^2-methyl-1H-pyrrole-2,5-dicarboxamide], the pIC50 (BRD4 BD1) was ≤ 5.00, the pIC50 (BRD4 BD2) was > 7.30 and the Fold selectivity (BRD4 BD2) was “XXX (Fold >200)”. The half-life at 1 μM [1] was 60 min, the “Plasma Stability (% remaining at 120 minutes), Rat” value ([2]; Method 2 (10 μM)) was 92% and the “PO F” value [3] was 44%. It also gave a half-life [3] of 0.6 h and a solubility thermodynamic [4] of 365 µM (≈ 124 µg/mL).

For CNC(=O)c1[nH]c(C(=O)NC2CCC2)cc1OC(C)c1ccccc1 (single isomer, unassigned) [Example 102, N^5-cyclobutyl-N^2-methyl-3-(1-phenylethoxy)-1H-pyrrole-2,5-dicarboxamide], the pIC50 (BRD4 BD1) was ≤ 5.00, the pIC50 (BRD4 BD2) was < 5.00 and the Fold selectivity (BRD4 BD2) was “— (Fold ≥0 and ≤2)”. The half-life at 1 μM [1] was 41 min, the “PO F” value [3] was 13% and the half-life [3] was 2.7 h. For the same compound, the solubility thermodynamic at 24 h [4, 8] was 188 µM (≈ 64.2 µg/mL).

For CNC(=O)c1[nH]c(C(=O)NC2CCC2)cc1OC(C)c1ccc(Cl)cn1 (single isomer, unassigned) [Example 33, 3-(1-(5-chloropyridin-2-yl)ethoxy)-N^5-cyclobutyl-N^2-methyl-1H-pyrrole-2,5-dicarboxamide], the pIC50 (BRD4 BD1) was ≤ 5.00, the pIC50 (BRD4 BD2) was 6.70 to 7.30 and the Fold selectivity (BRD4 BD2) was “XX (Fold >50 and ≤200)”. For the same compound, the half-life at 1 μM [1] was > 60 min, the “Plasma Stability (% remaining at 120 minutes), Rat” value ([2]; Method 2 (10 μM)) was 85% and the solubility thermodynamic [4] was 685 µM (≈ 258 µg/mL).

For CNC(=O)c1[nH]c(C(=O)N[C@H]2CC[C@H](O)CC2)cc1OC(C)c1ccccc1 (single isomer, unassigned) [Example 97, N^5-(trans-4-hydroxycyclohexyl)-N^2-methyl-3-(1-phenylethoxy)-1H-pyrrole-2,5-dicarboxamide], the pIC50 (BRD4 BD1) was ≤ 5.00, the half-life at 1 μM [5] was 70 min and the pIC50 (BRD4 BD2) was 6.70 to 7.30. The Fold selectivity (BRD4 BD2) was “XX (Fold >50 and ≤200)”, the half-life at 1 μM [1] was > 60 min and the “Plasma Stability (% remaining at 120 minutes), Human” value [6] was >99%. For the same compound, the “Plasma Stability (% remaining at 120 minutes), Rat” value ([2]; Method 1 (5 μM)) was >99%, the “PO F” value [3] was 60% and the half-life [3] was 1.4 h. The solubility thermodynamic at 24 h [4, 8] was 418 µM (≈ 161 µg/mL) and the “Plasma Stability (% remaining at 120 minutes), Mouse” value [7] was 93%.

For CNC(=O)c1[nH]c(C(=O)NC2CC2)cc1O[C@@H](C)c1ccc(Cl)cc1 [Example 62, (S)-3-(1-(4-chlorophenyl)ethoxy)-N^5-cyclopropyl-N^2-methyl-1H-pyrrole-2,5-dicarboxamide], the pIC50 (BRD4 BD1) was ≤ 5.00, the pIC50 (BRD4 BD2) was > 7.30 and the Fold selectivity (BRD4 BD2) was “XXX (Fold >200)”. The half-life at 1 μM [1] was > 60 min, the “Plasma Stability (% remaining at 120 minutes), Rat” value ([2]; Method 2 (10 μM)) was 82% and the “PO F” value [3] was 8%. It also gave a half-life [3] of 0.5 h and a solubility thermodynamic [4] of 320 µM (≈ 116 µg/mL).

For CNC(=O)c1[nH]c(C(=O)N[C@H]2CC[C@H](O)CC2)cc1OC(C)c1ccccc1 (single isomer, unassigned) [Example 98, N^5-(trans-4-hydroxycyclohexyl)-N^2-methyl-3-(1-phenylethoxy)-1H-pyrrole-2,5-dicarboxamide], the pIC50 (BRD4 BD1) was ≤ 5.00, the pIC50 (BRD4 BD2) was < 5.00 and the Fold selectivity (BRD4 BD2) was “— (Fold ≥0 and ≤2)”. For the same compound, the “Half-Life (T1/2) (min), Rat” value ([1]; rat liver microsomes) was >60 min, the “IV T1/2” value [3] was 1.2 h and the “PO F” value [3] was 31%. The “Thermodynamic Solubility FaSSIF pH 6.5 (μM)” value [4, 8] was 429 μM.

— patent US20250263370A1 (Tay Therapeutics Limited, priority 2022, published 2025)
